Source: patent US20250230193A1, “CYCLIC COMPOUND HAVING SELECTIVE KRAS INHIBITORY EFFECT ON HRAS AND NRAS” (CHUGAI SEIYAKU KABUSHIKI KAISHA, priority 2022, published 2025)

How the values were obtained:
[1] = tested on: human lung cancer strain NCI-H441; assay: cells; settings: NCI-H441, 96 h, read-out: NCI-H441 IC50 (nM)
[2] = target: GDP-bound NRAS wild-type protein (Homo sapiens, UniProt P01111); assay: Binding to NRAS by surface plasmon resonance (SPR), Single Cycle Kinetics; settings: SPR; KD ratio class
[3] = target: GDP-bound HRAS wild-type protein (Homo sapiens, UniProt P01112); assay: Binding to HRAS by surface plasmon resonance (SPR), Single Cycle Kinetics; settings: SPR; KD ratio class
GDP-bound HRAS wild-type protein, sequence (P01112 whole entry): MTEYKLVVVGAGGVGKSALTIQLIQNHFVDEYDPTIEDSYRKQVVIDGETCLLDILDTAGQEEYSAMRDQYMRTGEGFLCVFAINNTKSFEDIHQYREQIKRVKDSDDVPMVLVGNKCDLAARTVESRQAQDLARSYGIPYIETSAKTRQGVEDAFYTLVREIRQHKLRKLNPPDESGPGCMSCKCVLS

GDP-bound NRAS wild-type protein, sequence (P01111 whole entry): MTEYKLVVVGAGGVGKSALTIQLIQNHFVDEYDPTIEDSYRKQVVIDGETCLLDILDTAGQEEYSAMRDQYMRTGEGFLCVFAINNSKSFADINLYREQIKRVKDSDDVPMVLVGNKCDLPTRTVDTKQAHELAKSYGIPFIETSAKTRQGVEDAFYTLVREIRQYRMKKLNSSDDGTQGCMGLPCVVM

Row | Structure (SMILES) | IC50 [1] | NRAS/KRAS (ratio of KD value for GDP-bound NRAS wild-type protein to KD value for KRAS) [2] | HRAS/KRAS (ratio of KD value for GDP-bound HRAS wild-type protein to KD value for KRAS) [3]
1 | CCO[C@@H]1C[C@H]2C(=O)NC3(CCC3)C(=O)N(C)[C@@H](C3CCCC3)C(=O)N(C)[C@H](C(=O)N(C)C)CC(=O)N(C)[C@@H](CC(C)C)C(=O)N[C@@H]([C@@H](C)CC)C(=O)N(C)CC(=O)N(C)[C@H]3C/C=C\CCN(C3=O)[C@@H](Cc3ccc(F)cc3C)C(=O)N(C)CC(=O)N[C@@H](CCc3ccc(Cl)c(Cl)c3)C(=O)N2C1 [PP1480] | 85.8 nM | A (a compound having 10 or more and less than 20 is denoted as A) | B (a compound having 3 or more and less than 10 is denoted as B)
2 | CCO[C@@H]1C[C@H]2C(=O)NC3(CCC3)C(=O)N(C)[C@@H](C3CCCC3)C(=O)N(C)[C@H](C(=O)N(C)C)CC(=O)N(C)[C@@H](CC(C)C)C(=O)N[C@@H]([C@@H](C)CC)C(=O)N(C)CC(=O)N(C)[C@H]3C/C=C\CCN(C3=O)[C@@H](Cc3ccc(F)cc3)C(=O)N(C)CC(=O)N[C@@H](CCc3ccc(Cl)c(Cl)c3)C(=O)N2C1 [PP1482] | 76.4 nM | A (a compound having 10 or more and less than 20 is denoted as A) | B (a compound having 3 or more and less than 10 is denoted as B)
3 | CCO[C@@H]1C[C@H]2C(=O)NC3(CCC3)C(=O)N(C)[C@@H](C3CCCC3)C(=O)N(C)[C@H](C(=O)N(C)C)CC(=O)N(C)[C@@H](CC(C)C)C(=O)N[C@@H]([C@@H](C)CC)C(=O)N(C)CC(=O)N(C)[C@H]3C/C=C\CCN(C3=O)[C@@H](Cc3ccc(F)cc3)C(=O)N(C)CC(=O)N[C@@H](CCc3cc(F)c(Cl)c(F)c3)C(=O)N2C1 [PP1483] | 90.3 nM | A (a compound having 10 or more and less than 20 is denoted as A) | B (a compound having 3 or more and less than 10 is denoted as B)
4 | CCO[C@@H]1C[C@H]2C(=O)NC3(CCC3)C(=O)N(C)[C@@H](C3CCCC3)C(=O)N(C)[C@H](C(=O)N(C)C)CC(=O)N(C)[C@@H](CC3CC3)C(=O)N[C@@H]([C@@H](C)CC)C(=O)N(C)CC(=O)N(C)[C@H]3C/C=C\CCN(C3=O)[C@@H](Cc3ccc(C)cc3)C(=O)N(C)CC(=O)N[C@@H](CCc3cc(F)c(Cl)c(F)c3)C(=O)N2C1 [PP1484] | 59.3 nM | A (a compound having 10 or more and less than 20 is denoted as A) | A (a compound having 10 or more and less than 20 is denoted as A)
5 | CCO[C@@H]1C[C@H]2C(=O)NC3(CCC3)C(=O)N(C)[C@@H](C3CCCC3)C(=O)N(C)[C@H](C(=O)N(C)C)CC(=O)N(C)[C@@H](CC3CC3)C(=O)N[C@@H]([C@@H](C)CC)C(=O)N(C)CC(=O)N(C)[C@H]3C/C=C\CCN(C3=O)[C@@H](Cc3ccc(C)cc3)C(=O)N(C)CC(=O)N[C@@H](CCc3ccc(Cl)c(Cl)c3)C(=O)N2C1 [PP1485] | 30.5 nM | A (a compound having 10 or more and less than 20 is denoted as A) | A (a compound having 10 or more and less than 20 is denoted as A)
6 | CCO[C@@H]1C[C@H]2C(=O)NC3(CCC3)C(=O)N(C)[C@@H](C3CCCC3)C(=O)N(C)[C@H](C(=O)N(C)C)CC(=O)N(C)[C@@H](CC3CCCC3)C(=O)N[C@@H]([C@@H](C)CC)C(=O)N(C)CC(=O)N(C)[C@H]3C/C=C\CCN(C3=O)[C@@H](Cc3ccc(C)cc3)C(=O)N(C)CC(=O)N[C@@H](CCc3cc(F)c(Cl)c(F)c3)C(=O)N2C1 [PP1486] | 15 nM | A (a compound having 10 or more and less than 20 is denoted as A) | A (a compound having 10 or more and less than 20 is denoted as A)
7 | CCO[C@@H]1C[C@H]2C(=O)NC3(CCC3)C(=O)N(C)[C@@H](C3CCCC3)C(=O)N(C)[C@H](C(=O)N(C)C)CC(=O)N(C)[C@@H](CC3CCCC3)C(=O)N[C@@H]([C@@H](C)CC)C(=O)N(C)CC(=O)N(C)[C@H]3C/C=C\CCN(C3=O)[C@@H](Cc3ccc(C)cc3)C(=O)N(C)CC(=O)N[C@@H](CCc3ccc(Cl)c(Cl)c3)C(=O)N2C1 [PP1487] | 46.6 nM | A (a compound having 10 or more and less than 20 is denoted as A) | A (a compound having 10 or more and less than 20 is denoted as A)
8 | CCO[C@@H]1C[C@H]2C(=O)NC3(CCC3)C(=O)N(C)[C@@H](C3CCCC3)C(=O)N(C)[C@H](C)CC(=O)N(C)[C@@H](CC(C)C)C(=O)N[C@@H]([C@@H](C)CC)C(=O)N(C)CC(=O)N(C)[C@H]3C/C=C\CCN(C3=O)[C@@H](Cc3ccc(F)cc3)C(=O)N(C)CC(=O)N[C@@H](CCc3cc(F)c(C(F)(F)F)c(F)c3)C(=O)N2C1 [PP1494] | 142 nM | B (a compound having 3 or more and less than 10 is denoted as B) | B (a compound having 3 or more and less than 10 is denoted as B)

The next lines start with results.

Row | IC50 [1] | Structure (SMILES) | NRAS/KRAS (ratio of KD value for GDP-bound NRAS wild-type protein to KD value for KRAS) [2] | HRAS/KRAS (ratio of KD value for GDP-bound HRAS wild-type protein to KD value for KRAS) [3]
9 | 140 nM | CCO[C@@H]1C[C@H]2C(=O)NC3(CCC3)C(=O)N(C)[C@@H](C3CCCC3)C(=O)N(C)[C@H](C(=O)N(C)C)CC(=O)N(C)[C@@H](CC3CC3)C(=O)N[C@@H]([C@@H](C)CC)C(=O)N(C)CC(=O)N(C)[C@H]3C/C=C\CCN(C3=O)[C@@H](Cc3ccc(F)cc3)C(=O)N(C)CC(=O)N[C@@H](CCc3cc(F)c(Cl)c(F)c3)C(=O)N2C1 [PP1479] | A (a compound having 10 or more and less than 20 is denoted as A) | B (a compound having 3 or more and less than 10 is denoted as B)
10 | 14.8 nM | CCO[C@@H]1C[C@H]2C(=O)NC3(CCC3)C(=O)N(C)[C@@H](C3CCCC3)C(=O)N(C)[C@H](C(=O)N(C)C)CC(=O)N(C)[C@@H](CC(C)C)C(=O)N[C@@H]([C@@H](C)CC)C(=O)N(C)CC(=O)N(C)[C@H]3C/C=C\CCN(C3=O)[C@@H](Cc3ccc(F)cc3C)C(=O)N(C)CC(=O)N[C@@H](CCc3cc(F)c(Cl)c(F)c3)C(=O)N2C1 [PP1481] | A (a compound having 10 or more and less than 20 is denoted as A) | B (a compound having 3 or more and less than 10 is denoted as B)
11 | 118 nM | CCO[C@@H]1C[C@H]2C(=O)NC3(CCC3)C(=O)N(C)[C@@H](C3CCCC3)C(=O)N(C)[C@H](C)CC(=O)N(C)[C@@H](CC3CC3)C(=O)N[C@@H]([C@@H](C)CC)C(=O)N(C)CC(=O)N(C)[C@H]3C/C=C\CCN(C3=O)[C@@H](Cc3ccc(F)cc3C)C(=O)N(C)CC(=O)N[C@@H](CCc3cc(F)c(C(F)(F)F)c(F)c3)C(=O)N2C1 [PP1489] | B (a compound having 3 or more and less than 10 is denoted as B) | B (a compound having 3 or more and less than 10 is denoted as B)
12 | 48.9 nM | CCO[C@@H]1C[C@H]2C(=O)NC3(CCC3)C(=O)N(C)[C@@H](C3CCCC3)C(=O)N(C)[C@H](C)CC(=O)N(C)[C@@H](CC3CC3)C(=O)N[C@@H]([C@@H](C)CC)C(=O)N(C)CC(=O)N(C)[C@H]3C/C=C\CCN(C3=O)[C@@H](Cc3ccc(F)cc3)C(=O)N(C)CC(=O)N[C@@H](CCc3cc(F)c(C(F)(F)F)c(F)c3)C(=O)N2C1 [PP1490] | B (a compound having 3 or more and less than 10 is denoted as B) | B (a compound having 3 or more and less than 10 is denoted as B)
13 | 129 nM | CCO[C@@H]1C[C@H]2C(=O)NC3(CCC3)C(=O)N(C)[C@@H](C3CCCC3)C(=O)N(C)[C@H](C)CC(=O)N(C)[C@@H](CC3CCCC3)C(=O)N[C@@H]([C@@H](C)CC)C(=O)N(C)CC(=O)N(C)[C@H]3C/C=C\CCN(C3=O)[C@@H](Cc3ccc(F)cc3)C(=O)N(C)CC(=O)N[C@@H](CCc3cc(F)c(C(F)(F)F)c(F)c3)C(=O)N2C1 [PP1492] | B (a compound having 3 or more and less than 10 is denoted as B) | B (a compound having 3 or more and less than 10 is denoted as B)
14 | 135 nM | CCO[C@@H]1C[C@H]2C(=O)NC3(CCC3)C(=O)N(C)[C@@H](C3CCCC3)C(=O)N(C)[C@H](C)CC(=O)N(C)[C@@H](CC(C)C)C(=O)N[C@@H]([C@@H](C)CC)C(=O)N(C)CC(=O)N(C)[C@H]3C/C=C\CCN(C3=O)[C@@H](Cc3ccc(F)cc3C)C(=O)N(C)CC(=O)N[C@@H](CCc3cc(F)c(C(F)(F)F)c(F)c3)C(=O)N2C1 [PP1493] | B (a compound having 3 or more and less than 10 is denoted as B) | B (a compound having 3 or more and less than 10 is denoted as B)
15 | 98.7 nM | CCO[C@@H]1C[C@H]2C(=O)NC3(CCC3)C(=O)N(C)[C@@H](C3CCCC3)C(=O)N(C)[C@H](C(=O)N3CCOCC3)CC(=O)N(C)[C@@H](CC3CC3)C(=O)N[C@@H]([C@@H](C)CC)C(=O)N(C)CC(=O)N(C)[C@H]3C/C=C\CCN(C3=O)[C@@H](Cc3ccc(F)cc3C)C(=O)N(C)CC(=O)N[C@@H](CCc3cc(F)c(C(F)(F)F)c(F)c3)C(=O)N2C1 [PP1495] | A (a compound having 10 or more and less than 20 is denoted as A) | B (a compound having 3 or more and less than 10 is denoted as B)
